Measured values reported in ChEMBL document CHEMBL1133357, “Inhibition of neuraminidase with neuraminic acid C-glycosides” (Bioorg Med Chem Lett, 2000).

experiment: The compound was tested for its inhibitory activity against bacterial neuraminidase; parameters: species or system Clostridium perfringens

| Compound | Ki [µM] |
| --- | --- |
| CC(=O)NC1C(O)CC(C(=O)O)([C@@H](O)C2C(O)C(CO)OC(OC(=O)c3ccccc3)C2O)OC1C(O)C(O)CO (stereo not given in full) | 110 |
| CCCCCCCC(O)[C@]1(C(=O)O)C[C@@H](O)[C@@H](NC(C)=O)C(C(O)C(O)CO)O1 (stereo not given in full) | 16 |
| CC(=O)N[C@H]1C(C(O)C(O)CO)O[C@](C(=O)O)(C(C)(C)O)C[C@H]1O (stereo not given in full) | 29 |
| COC1OC(CO)C(O)C([C@@H](O)C2(C(=O)O)CC(O)C(NC(C)=O)C(C(O)C(O)CO)O2)C1O (stereo not given in full) | > 1000 |
| CC(=O)NC1C(O)CC(C(=O)O)([C@H](O)C2C(O)C(CO)OC(OC(=O)c3ccccc3)C2O)OC1C(O)C(O)CO (stereo not given in full) | 229 |
